Patent US20190071416A1, “COMPOUNDS FOR TREATMENT OF CANCER AND EPIGENETICS” (Agency For Science, Technology and Research, priority 2015, published 2019)

Molecular target: T1, SMYD3 (Homo sapiens, UniProt Q9H7B4)
T1 sequence (Q9H7B4 1-428): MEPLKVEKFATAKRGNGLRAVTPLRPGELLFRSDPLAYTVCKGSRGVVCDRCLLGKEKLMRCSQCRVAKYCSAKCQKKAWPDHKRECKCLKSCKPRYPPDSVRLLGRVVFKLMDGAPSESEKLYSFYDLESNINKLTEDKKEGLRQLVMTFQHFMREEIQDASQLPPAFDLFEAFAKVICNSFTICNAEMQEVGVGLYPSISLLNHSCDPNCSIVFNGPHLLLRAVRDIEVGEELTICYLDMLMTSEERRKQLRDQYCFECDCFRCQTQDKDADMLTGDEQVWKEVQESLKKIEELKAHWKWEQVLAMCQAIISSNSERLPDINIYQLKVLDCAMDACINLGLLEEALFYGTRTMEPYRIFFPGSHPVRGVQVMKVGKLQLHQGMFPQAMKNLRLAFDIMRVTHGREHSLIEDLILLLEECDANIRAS
Assay: Target engagement assay, SMYD3 levels by Western blot in HEK293 cells transfected with Myc-SMYD3
Type: cell-based
Parameters: host or cells: HEK293 (ATCC)
Conditions: 25 μM, overnight, HEK293 transiently transfected with Myc-tagged SMYD3
Procedure: The target engagement assay was performed with HEK293 that is engineered to overexpress SMYD3 (HEK293-SMYD3). The plasmid SMYD3 (Myc-DDK-tagged-Human SET and MYND domain containing 3) was purchased from Origene (RC230064) and transfected with lipofectamine 2000 (Invitrogen) into HEK293 (ATCC). The cell line is cultured in Eagle's MEM media supplemented with fetal bovine serum and geneticin (Invitrogen). Presence of over-expressed SMYD3 is confirmed with western blot with antibody against SMYD3 and the MYC tag as well as with RT-PCR with SMYD3 primers.
The cells were seeded in 6 well plates. After seeding for 24 h, the cells were treated with either DMSO or 25 μM compound and incubated for 24 hr. The cells were trypsinized and the lysate was extracted with RIPA buffer (Santa Cruz). The total protein concentration of lysate is quantified using the standard Bradford assay (Biorad protein assay, microplate standard assay).
Western blot analysis was performed using antibody against SMYD3 in HEK293 cells over-expressing SMYD3 (HEK293-SMYD3) treated with compound at different time points. 15.0 μg of cell lysate was diluted in 2× Laemmli sample buffer (Bio-Rad) and boiled at 100° C. on heat block for 5 min. Lysates were separated using NuPAGE® 4-12% Bis-Tris precast polyacrylamide gels (Lifetech) at 200 V, […] for 40 min. […]

With CCCOC(=O)N1CCN(C(=O)c2ccc3c(Cl)cc(-c4ccccc4)nc3c2)C[C@H]1C [B019, Propyl (R)-4-(4-chloro-2-phenylquinoline-7-carbonyl)-2-methylpiperazine-1-carboxylate] the “reduction in SMYD3 levels” value was 35-37%.
